{
  "source": "patent US8945856B2",
  "about": "“Affinity-based detection of biological targets” (priority 2005, dated 2015)",
  "key": {"[1]": {"tested_on": "E. coli", "assay_type": "binding"}, "[2]": {"molecular_target": "botulinum toxoid A (Clostridium botulinum, UniProt P0DPI0)", "sequence (P0DPI0 whole entry, looked up)": "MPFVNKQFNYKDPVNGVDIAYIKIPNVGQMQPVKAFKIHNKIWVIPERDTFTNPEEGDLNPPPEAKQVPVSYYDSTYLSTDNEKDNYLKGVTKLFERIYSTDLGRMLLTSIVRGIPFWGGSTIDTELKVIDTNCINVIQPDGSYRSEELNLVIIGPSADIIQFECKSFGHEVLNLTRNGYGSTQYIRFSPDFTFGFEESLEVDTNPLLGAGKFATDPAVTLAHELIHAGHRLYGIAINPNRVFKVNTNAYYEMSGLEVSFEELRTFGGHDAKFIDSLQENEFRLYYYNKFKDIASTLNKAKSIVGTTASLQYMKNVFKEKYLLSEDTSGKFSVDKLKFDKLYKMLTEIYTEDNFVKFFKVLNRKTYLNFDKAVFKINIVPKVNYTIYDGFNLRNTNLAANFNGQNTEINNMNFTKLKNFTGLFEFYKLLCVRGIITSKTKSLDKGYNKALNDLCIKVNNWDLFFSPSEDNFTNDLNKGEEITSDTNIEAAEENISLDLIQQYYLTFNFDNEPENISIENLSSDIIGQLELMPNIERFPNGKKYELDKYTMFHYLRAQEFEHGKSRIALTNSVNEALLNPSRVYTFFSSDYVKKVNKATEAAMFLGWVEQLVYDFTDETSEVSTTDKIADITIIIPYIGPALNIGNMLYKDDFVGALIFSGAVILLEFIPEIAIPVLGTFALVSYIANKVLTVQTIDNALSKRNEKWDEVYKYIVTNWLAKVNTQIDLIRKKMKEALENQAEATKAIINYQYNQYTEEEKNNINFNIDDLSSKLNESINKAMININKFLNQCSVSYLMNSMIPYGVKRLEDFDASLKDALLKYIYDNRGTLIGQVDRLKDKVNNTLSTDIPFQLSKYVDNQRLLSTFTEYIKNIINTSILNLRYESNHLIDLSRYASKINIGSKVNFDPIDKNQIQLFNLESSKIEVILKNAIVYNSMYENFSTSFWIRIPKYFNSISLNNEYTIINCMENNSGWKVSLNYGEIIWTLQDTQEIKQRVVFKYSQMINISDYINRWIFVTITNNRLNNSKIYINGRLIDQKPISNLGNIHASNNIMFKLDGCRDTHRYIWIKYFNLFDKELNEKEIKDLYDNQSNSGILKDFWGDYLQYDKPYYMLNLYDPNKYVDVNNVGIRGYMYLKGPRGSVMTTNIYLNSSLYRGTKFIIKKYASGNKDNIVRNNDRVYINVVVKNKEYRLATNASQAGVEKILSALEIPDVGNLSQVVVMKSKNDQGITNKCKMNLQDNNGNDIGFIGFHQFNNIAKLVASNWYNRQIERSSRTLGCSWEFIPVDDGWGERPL", "assay_type": "binding"}, "[3]": {"tested_on": "E. coli cells", "conditions": "total analysis time 2.5 hours; cited from earlier work"}, "[4]": {"tested_on": "Campylobacter sp.", "experiment": "Array Biosensor binding to directly immobilized magainin", "conditions": "analogous conditions"}, "[5]": {"tested_on": "heat-killed E. coli O157:H7 cells", "experiment": "Array Biosensor direct assay: Cy5-labeled cells binding to immobilized magainin", "conditions": "magainin I covalently (directly) immobilized via GMBS"}, "[6]": {"tested_on": "heat-killed S. typhimurium cells", "experiment": "Array Biosensor direct assay: Cy5-labeled cells binding to immobilized magainin"}, "[7]": {"tested_on": "Bacillus sp.", "experiment": "Array Biosensor binding to directly immobilized magainin", "conditions": "analogous conditions"}, "[8]": {"tested_on": "Salmonella", "assay_type": "binding"}, "[9]": {"tested_on": "E. coli lipopolysaccharide (LPS)", "conditions": "5-minute competitive assays; cited from earlier work"}, "[10]": {"tested_on": "E. coli lipopolysaccharide (LPS)", "experiment": "Fiber optic biosensor 5-minute competitive assay with polymyxin B as capture molecule (James et al.)", "assay_type": "binding", "conditions": "assuming LPS monomer 4-20 kDa and 1.2×10^6 LPS molecules per cell"}},
  "data": [
    {"substance": "Bactenecin", "values": [
      {"measurement": "LOD for E. coli", "setting": "[1]", "result": "10^2-10^3 cfu/ml"}
    ]},
    {"substance": "Cecropin A (KWKLFKKIEKVGQNIRDGIIKAGPAVAVVGQATQIAK)", "values": [
      {"measurement": "Binding of botulinum toxoid to immobilized capture species", "setting": "[2]", "result": "bound"},
      {"measurement": "Estimated limit of detection compared with antibody-based assays", "setting": "[2]", "result": "significantly lower"},
      {"measurement": "Preferential binding, toxoid A versus toxoid B", "setting": "[2]", "result": "bound preferentially by toxoid A"}
    ]},
    {"substance": "Cecropin P1 (SWLSKTAKKLENSAKKRISEGIAIAIQGGPR; Cecropin-P1; UniProt P14661 14-44, looked up)", "values": [
      {"measurement": "Detection limit for E. coli", "setting": "[3]", "result": "~10^7 cfu/mL"}
    ]},
    {"substance": "Magainin I (GIGKFLHSAGKFGKAFVGEIMKS; listed as Xenopus laevis)", "values": [
      {"measurement": "Binding of Campylobacter sp.", "setting": "[4]", "result": "only trace binding"},
      {"measurement": "Binding of botulinum toxoid to immobilized capture species", "setting": "[2]", "result": "not"},
      {"measurement": "Detection limit for labelled E. coli", "setting": "[5]", "result": "1.6×10^5 cell/mL"},
      {"measurement": "Detection limit for labelled S. typhimurium", "setting": "[6]; magainin I covalently (directly) immobilized via GMBS, Cy5-labeled heat-killed cells", "result": "6.5×10^4 cell/mL"},
      {"measurement": "Concentration in solution during immobilization step at which bacterial binding saturated", "setting": "[6]; patterning solution, target bacteria", "result": 0.4, "unit": "mM"},
      {"measurement": "Binding of Bacillus sp.", "setting": "[7]", "result": "only trace binding"}
    ]},
    {"substance": "Polymyxin B", "values": [
      {"measurement": "LOD for Salmonella", "setting": "[8]", "result": "10^5 cfu/ml"},
      {"measurement": "Binding of botulinum toxoid to immobilized capture species", "setting": "[2]", "result": "less strongly"},
      {"measurement": "Detection limit for E. coli LPS", "setting": "[9]", "result": "approx. 10 ng/mL"},
      {"measurement": "Detection limit calculated as number of bacteria per mL", "setting": "[10]", "result": "3×10^5-1.3×10^6 cells/mL"}
    ]}
  ]
}
